# Measured values from ChEMBL document CHEMBL1914458 (Eur J Med Chem, 2011).
# Experiments:
# [1] = Inhibition of self-mediated amyloid beta (1 to 42) aggregation at 10 uM after 48 hrs by thioflavin T fluorescence assay
# [2] = Antioxidant activity assessed as trolox equivalent of AAPH-induced peroxyl radical scavenging activity at 0.5 to 10 uM after 10 mins by oxygen radical absorbance capacity-fluorescein assay; format: functional
# [3] = target: Cholinesterase (Equus caballus, UniProt P81908)
# Chain of Cholinesterase (P81908 whole entry): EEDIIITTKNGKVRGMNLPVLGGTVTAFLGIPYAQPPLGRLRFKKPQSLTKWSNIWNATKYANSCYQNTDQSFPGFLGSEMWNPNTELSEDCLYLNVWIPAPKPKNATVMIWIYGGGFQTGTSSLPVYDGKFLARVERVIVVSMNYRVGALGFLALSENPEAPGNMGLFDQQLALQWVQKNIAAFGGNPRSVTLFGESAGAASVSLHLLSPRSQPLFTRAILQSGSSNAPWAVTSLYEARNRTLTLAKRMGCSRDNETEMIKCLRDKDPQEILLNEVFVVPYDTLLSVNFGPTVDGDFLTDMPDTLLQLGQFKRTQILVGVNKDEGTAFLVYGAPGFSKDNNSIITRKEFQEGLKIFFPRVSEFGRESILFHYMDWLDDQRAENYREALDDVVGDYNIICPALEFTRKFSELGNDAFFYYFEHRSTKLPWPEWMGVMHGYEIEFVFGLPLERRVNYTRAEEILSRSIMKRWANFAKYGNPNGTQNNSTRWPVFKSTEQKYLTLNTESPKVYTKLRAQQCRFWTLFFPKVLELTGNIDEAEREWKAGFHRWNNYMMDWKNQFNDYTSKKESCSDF
# Description: Inhibition of equine serum BuChE using butyrylthiocholine chloride as substrate preincubated for 15 mins by Ellman's method
# [4] = target: Acetylcholinesterase (Electrophorus electricus, UniProt O42275)
# Chain of Acetylcholinesterase (O42275 whole entry): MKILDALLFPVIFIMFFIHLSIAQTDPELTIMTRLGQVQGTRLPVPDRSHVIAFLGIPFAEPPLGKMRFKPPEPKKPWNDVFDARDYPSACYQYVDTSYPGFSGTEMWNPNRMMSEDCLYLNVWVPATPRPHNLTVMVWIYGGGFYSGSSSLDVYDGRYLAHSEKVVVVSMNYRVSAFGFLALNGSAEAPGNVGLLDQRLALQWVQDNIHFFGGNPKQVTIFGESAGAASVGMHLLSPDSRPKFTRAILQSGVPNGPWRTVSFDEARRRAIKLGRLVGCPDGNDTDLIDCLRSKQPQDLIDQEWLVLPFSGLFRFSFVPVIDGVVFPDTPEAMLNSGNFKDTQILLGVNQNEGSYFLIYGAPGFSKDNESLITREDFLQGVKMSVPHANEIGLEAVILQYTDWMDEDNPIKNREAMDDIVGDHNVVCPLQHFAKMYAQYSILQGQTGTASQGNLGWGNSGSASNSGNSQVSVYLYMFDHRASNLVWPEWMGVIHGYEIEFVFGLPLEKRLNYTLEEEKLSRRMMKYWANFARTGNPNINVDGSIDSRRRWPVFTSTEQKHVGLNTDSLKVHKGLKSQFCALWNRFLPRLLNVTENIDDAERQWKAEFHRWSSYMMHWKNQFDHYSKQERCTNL
# Description: Inhibition of electric eel AChE using acetylthiocholine chloride substrate as substrate preincubated for 15 mins by Ellman's method
# [5] = Inhibition of self-mediated amyloid beta (1 to 42) aggregation at 20 uM after 48 hrs by thioflavin T fluorescence assay
SMILES,inhibition [1],Ratio [2],IC50 [3],IC50 [4],inhibition [5]
COc1cc(/C=C/C(=O)CC(=O)/C=C/c2ccc(O)c(OC)c2)ccc1O,30.7%,,,,
COc1ccc2cc3[n+](cc2c1NCCCCOc1cccnc1)CCc1cc2c(cc1-3)OCO2,,4.63,2940 nM,1170 nM,
COc1ccc2cc3[n+](cc2c1OC)CCc1cc2c(cc1-3)OCO2,8.9%,,,,36.3%
COc1ccc2cc3[n+](cc2c1NCCCN(C)C)CCc1cc2c(cc1-3)OCO2,,5.7,6320 nM,576 nM,
COc1ccc2cc3[n+](cc2c1NCCCCCOc1ccccc1)CCc1cc2c(cc1-3)OCO2,,3.64,1560 nM,1090 nM,
COc1ccc2cc3[n+](cc2c1OCCCCOc1ccccc1)CCc1cc2c(cc1-3)OCO2,,1,,,
COc1ccc2cc3[n+](cc2c1NCc1ccccc1)CCc1cc2c(cc1-3)OCO2,,4.32,2280 nM,936 nM,
COc1ccc2cc3[n+](cc2c1NCCc1ccc(Cl)cc1Cl)CCc1cc2c(cc1-3)OCO2,81.3%,3.36,424 nM,130 nM,93.6%
COc1ccc2cc3[n+](cc2c1NCCCc1ccccc1)CCc1cc2c(cc1-3)OCO2,,3.51,785 nM,680 nM,
COc1ccc(CCNc2c(OC)ccc3cc4[n+](cc23)CCc2cc3c(cc2-4)OCO3)cc1OC,54.1%,5.3,5820 nM,160 nM,70.1%
COc1ccc2[nH]cc(CCNc3c(OC)ccc4cc5[n+](cc34)CCc3cc4c(cc3-5)OCO4)c2c1,,6.06,1390 nM,1260 nM,
COc1ccc2cc3[n+](cc2c1NCC(C)C)CCc1cc2c(cc1-3)OCO2,,5.12,2020 nM,1140 nM,
COc1ccc2cc3[n+](cc2c1NCCc1ccccc1C)CCc1cc2c(cc1-3)OCO2,80%,4.05,713 nM,27 nM,95%
COc1ccc2cc3[n+](cc2c1NCCCCOc1cccc2ccccc12)CCc1cc2c(cc1-3)OCO2,,2.49,511 nM,400 nM,
COc1ccc2cc3[n+](cc2c1NCCc1ccc(F)cc1)CCc1cc2c(cc1-3)OCO2,76.3%,4.48,445 nM,238 nM,90.4%
COc1ccc2cc3[n+](cc2c1NCCc1ccc([N+](=O)[O-])cc1)CCc1cc2c(cc1-3)OCO2,73.7%,2.83,841 nM,693 nM,82.6%
COc1ccc2cc3[n+](cc2c1NCCc1cccs1)CCc1cc2c(cc1-3)OCO2,72.8%,4.18,555 nM,608 nM,87.8%
COc1ccc2cc3[n+](cc2c1NC(C)c1ccccc1)CCc1cc2c(cc1-3)OCO2 (stereo unspecified),,2.17,3280 nM,1910 nM,
COc1ccc2cc3[n+](cc2c1NCCc1ccccn1)CCc1cc2c(cc1-3)OCO2,,6.4,2500 nM,1160 nM,
COc1ccc2cc3[n+](cc2c1NCCc1ccccc1)CCc1cc2c(cc1-3)OCO2,79.2%,4.8,406 nM,209 nM,92.2%
COc1ccc2cc3[n+](cc2c1NCCCOc1ccccc1)CCc1cc2c(cc1-3)OCO2,,5.4,216 nM,588 nM,
COc1ccc2cc3[n+](cc2c1NCCCCCCOc1ccccc1)CCc1cc2c(cc1-3)OCO2,,2.8,1300 nM,1420 nM,
COc1ccc2cc3[n+](cc2c1NCCOc1ccccc1)CCc1cc2c(cc1-3)OCO2,,5.15,727 nM,688 nM,
COc1ccc2cc3[n+](cc2c1NCCc1ccc(C)cc1)CCc1cc2c(cc1-3)OCO2,80%,4.56,821 nM,449 nM,94%
COc1ccc2cc3[n+](cc2c1NCCc1cccc(C)c1)CCc1cc2c(cc1-3)OCO2,79%,4.73,674 nM,91 nM,93.6%
COc1ccc(CCNc2c(OC)ccc3cc4[n+](cc23)CCc2cc3c(cc2-4)OCO3)cc1,79%,4.68,2880 nM,990 nM,91.1%
COc1ccc2cc3[n+](cc2c1NCCCCOc1ccccc1)CCc1cc2c(cc1-3)OCO2,,3.68,1200 nM,349 nM,
